Laboratory results as given in patent US20110152085A1, “Herbicidal Compositions Comprising Flufenacet” (BAYER CROPSCIENCE AG, priority 2009, published 2011).

Experiments:
[1] = tested on: VIOAR; test: Greenhouse trial, pre-emergence (PE) soil application, action against weeds; format: in vivo, Viola arvensis; details: g of AS/ha: (A) 90, (B) 300, (C) mefenpyr 300, about 3 weeks after application
Procedure: (§1) In the standard design of the test, seeds of various broad-leaved weed and weed grass biotypes (origins) were sown in a 8-13 cm diameter pot filled with natural soil of a standard field soil (loamy silt; non-sterile) and covered with a covering soil layer of about 1 cm. The pots were then cultivated in a greenhouse (12-16 h of light, temperature day 20-22° C., night 15-18° C.) until the time of application. The pots were treated on a laboratory track sprayer with spray liquors comprising the compositions according to the invention, mixtures of the prior art or components used individually. Application of the active compounds or active compound combinations formulated as WG, WP, EC or otherwise was carried out at the appropriate growth stages of the plants. The application rate for the spray application was 100-600 l of water/ha. After the treatment, the plants were returned to the greenhouses.
(§2) About 3 weeks after the application, the soil action or/and foliar action was assessed visually according to a scale of 0-100% in comparison to an untreated comparative group: 0%=no noticeable effect compared to the untreated comparative group; 100%=full effect compared to the untreated comparative group. […]

[2] = tested on: TRZAW; test: Greenhouse trial, selective pre-emergence action (PE application), crop plant; format: in vivo, Triticum aestivum, winter wheat; details: g of AS/ha: (A) 90, (B) 300, (C) mefenpyr 300
Procedure: as §1, §2

[3] = tested on: TRZAS; test: as above; format: in vivo, Triticum aestivum, summer wheat
Procedure: as §1
(§3) About 3 weeks after the application, the soil action or/and foliar action was assessed visually according to a scale of 0-100% in comparison to an untreated comparative group: 0%=no noticeable effect compared to the untreated comparative group; 100%=full effect compared to the untreated comparative group.
(§4) (notes: the term “seeds” also includes vegetative propagation forms such as, for example, rhizome pieces; abbreviations used: h light=hours of illumination, g of AS/ha=gram of active substance per hectare, l/ha=liter per hectare, S=sensitive, R=resistant) • 1. Pre-emergence action against weeds: seeds of various broad-leaved weed and weed grass biotypes (origins) were sown in a 8-13 cm diameter pot filled with natural soil of a standard field soil (loamy silt; non-sterile) and covered with a covering soil layer of about 1 cm. The pots were then cultivated in a greenhouse (12-16 h of light, temperature day 20-22° C., night 15-18° C.) until the time of application. The pots were treated at the BBCH stage 00-10 of the seeds/plants on a laboratory track sprayer with spray liquors comprising the compositions according to the invention, mixtures or components used individually, as WG, WP, EC or other formulations. The application rate for the spray application was 100-600 l of water/ha. After the treatment, the plants were returned to the greenhouses and, when required, treated with fertilizer and watered. • 2. Post-emergence action against weeds: seeds of various broad-leaved weed and weed grass biotypes (origins) were sown in a 8-13 cm diameter pot filled with natural soil of a standard field soil (loamy silt; non-sterile) and covered with a covering soil layer of about 1 cm. The pots were then cultivated in a greenhouse (12-16 h of light, temperature day 20-22° C., night 15-18° C.) until the time of application. […]

[4] = tested on: HORVW; test: as above; format: in vivo, Hordeum vulgare, winter barley; details: g of AS/ha: (A) 90, (B) 300, (C) mefenpyr 300
Procedure: as §1, §2

[5] = tested on: VIOAR; test: Greenhouse trial, incorporation of active compound into the soil covering layer, action against weeds; format: in vivo, Viola arvensis; details: g of AS/ha: (A) 90, (B) 300, (C) mefenpyr 300
Procedure: as §1, §2

[6] = tested on: TRZAW; test: Greenhouse trial, incorporation of active compound into the soil covering layer, crop plant; format: in vivo, Triticum aestivum, winter wheat; details: g of AS/ha: (A) 90, (B) 300, (C) mefenpyr 300
Procedure: as §1, §2

[7] = tested on: TRZAS; test: as above; format: in vivo, Triticum aestivum, summer wheat; details: g of AS/ha: (A) 90, (B) 300, (C) mefenpyr 300
Procedure: as §1, §2

[8] = tested on: HORVW; test: as above; format: in vivo, Hordeum vulgare, winter barley; details: g of AS/ha: (A) 90, (B) 300, (C) mefenpyr 300
Procedure: as §1, §2

[9] = tested on: ALOMY; test: Greenhouse trial, post-emergence (PO) action against weeds; format: in vivo, Alopecurus myosuroides; details: PO application; g of AS/ha: (A) 120, (B) 600
Procedure: as §1, §2

[10] = tested on: POAAN; test: as above; format: in vivo, Poa annua; details: PO application; g of AS/ha: (A) 120, (B) 600
Procedure: as §1, §2

[11] = tested on: AVEFA; test: as above; format: in vivo, Avena fatua; details: PO application; g of AS/ha: (A) 120, (B) 600
Procedure: as §1, §2

[12] = tested on: HORVS; test: Greenhouse trial, selective post-emergence (PO) action, crop plant; format: in vivo, Hordeum vulgare, summer barley; details: PO application, g of AS/ha: (A) 120, (B) 600
Procedure: as §1, §2

[13] = tested on: STEME; test: Greenhouse trial, PE application (comparison with pre-sowing method), weeds; format: in vivo, Stellaria media; details: g of AS/ha: (A) 90, (B) 300
Procedure: as §1, §2

[14] = tested on: AVEFA; test: as above; format: in vivo, Avena fatua; details: g of AS/ha: (A) 90, (B) 300
Procedure: as §1, §2

[15] = tested on: STEME; test: Greenhouse trial, pre-sowing application 7 days prior to sowing, weeds; format: in vivo, Stellaria media; details: g of AS/ha: (A) 90, (B) 300
Procedure: as §1, §2

[16] = tested on: AVEFA; test: as above; format: in vivo, Avena fatua; details: g of AS/ha: (A) 90, (B) 300
Procedure: as §1, §2

[17] = tested on: TRZAS; test: Greenhouse trial, pre-sowing application 7 days prior to sowing, crop plant; format: in vivo, Triticum aestivum, summer wheat; details: g of AS/ha: (A) 90, (B) 300
Procedure: as §1, §2

[18] = tested on: LOLPE; test: Greenhouse trial, PE application with different soil types; format: in vivo, Lolium perenne; details: g of AS/ha: (A) 90, (B) 300
Procedure: as §1, §3, §4

[19] = tested on: STEME; test: Greenhouse trial, PE application on sensitive and resistant biotypes; format: in vivo, Stellaria media; details: g of AS/ha: (A) 120, (B) 600, iodosulfuron 10; for STEME resistant activity (visual, scale 0-100%): resistant biotype; for STEME sensitive activity (visual, scale 0-100%): sensitive biotype
Procedure: as §1, §3
(§5) (notes: the term “seeds” also includes vegetative propagation forms such as, for example, rhizome pieces; abbreviations used: h light=hours of illumination, g of AS/ha=gram of active substance per hectare, l/ha=liter per hectare, S=sensitive, R=resistant) • 1. Pre-emergence action against weeds: seeds of various broad-leaved weed and weed grass biotypes (origins) were sown in a 8-13 cm diameter pot filled with natural soil of a standard field soil (loamy silt; non-sterile) and covered with a covering soil layer of about 1 cm. The pots were then cultivated in a greenhouse (12-16 h of light, temperature day 20-22° C., night 15-18° C.) until the time of application. The pots were treated at the BBCH stage 00-10 of the seeds/plants on a laboratory track sprayer with spray liquors comprising the compositions according to the invention, mixtures or components used individually, as WG, WP, EC or other formulations. The application rate for the spray application was 100-600 l of water/ha. After the treatment, the plants were returned to the greenhouses and, when required, treated with fertilizer and watered. • 2. Post-emergence action against weeds: seeds of various broad-leaved weed and weed grass biotypes (origins) were sown in a 8-13 cm diameter pot filled with natural soil of a standard field soil (loamy silt; non-sterile) and covered with a covering soil layer of about 1 cm. The pots were then cultivated in a greenhouse (12-16 h of light, temperature day 20-22° C., night 15-18° C.) until the time of application. The pots were treated at various BBCH stages between 11-25 of the seeds/plants, i.e. generally between two to three weeks after the start of the cultivation, on a laboratory track sprayer with spray liquors comprising the compositions according to the invention, mixtures or components used individually, as WG, WP, EC or other formulations. The application rate for the spray application was 100-600 l of water/ha. After the treatment, the plants were returned to the greenhouses and, when required, treated with fertilizer and watered. • 3. Pre-emergence action against weeds with and without incorporation of active compound: seeds of various broad-leaved weed and weed grass biotypes (origins) were sown in a 8-13 cm diameter pot filled with natural soil of a standard field soil (loamy silt; non-sterile). […]

[20] = tested on: MATCH; test: as above; format: in vivo, Matricaria chamomilla; details: g of AS/ha: (A) 120, (B) 600, iodosulfuron 10; for MATCH resistant activity (visual, scale 0-100%): resistant biotype; for MATCH sensitive activity (visual, scale 0-100%): sensitive biotype
Procedure: as §1, §3, §5

[21] = g of AS/ha: (A) 90, (B) 300, (C) mefenpyr 300
[22] = g of AS/ha: (A) 90, (B) 300, Table 3

SMILES	VIOAR activity (visual, scale 0-100%) [1] [%]	TRZAW activity (visual, scale 0-100%) [2] [%]	TRZAS activity (visual, scale 0-100%) [3, 21] [%]	TRZAS activity (visual, scale 0-100%) [3, 22] [%]	HORVW activity (visual, scale 0-100%) [4] [%]	VIOAR activity (visual, scale 0-100%) [5] [%]	TRZAW activity (visual, scale 0-100%) [6] [%]	TRZAS activity (visual, scale 0-100%) [7] [%]	HORVW activity (visual, scale 0-100%) [8] [%]	ALOMY activity (visual, scale 0-100%) [9] [%]	POAAN activity (visual, scale 0-100%) [10] [%]	AVEFA activity (visual, scale 0-100%) [11] [%]	HORVS activity (visual, scale 0-100%) [12] [%]	STEME activity (visual, scale 0-100%) [13] [%]	AVEFA activity (visual, scale 0-100%) [14] [%]	STEME activity (visual, scale 0-100%) [15] [%]	STEME resistant activity (visual, scale 0-100%) [19] [%]	STEME sensitive activity (visual, scale 0-100%) [19] [%]	MATCH resistant activity (visual, scale 0-100%) [20] [%]	MATCH sensitive activity (visual, scale 0-100%) [20] [%]	also measured
CC(C)N(C(=O)COc1nnc(C(F)(F)F)s1)c1ccc(F)cc1 [(A) flufenacet, N-(4-fluorophenyl)-N-(1-methylethyl)-2-[[5-(trifluoromethyl)-1,3,4-thiadiazol-2-yl]oxy]acetamide]	0	30	20	20	20	0	60	50	60	65	60	70	40	0	80	35	0	0	50	50	AVEFA activity (visual, scale 0-100%) [16]: 70%; TRZAS activity (visual, scale 0-100%) [17]: 50%; LOLPE IU soil activity (visual, scale 0-100%) [18]: 95%; LOLPE IU/EC73 soil activity (visual, scale 0-100%) [18]: 74%
CCCN(CCC)c1c([N+](=O)[O-])cc(C(F)(F)F)cc1[N+](=O)[O-] [(B) trifluralin, 2,6-dinitro-N,N-dipropyl-4-(trifluoromethyl)benzenamine]	0	20	0	0	0	10	100	90	60	30	40	20	20	10	70	30	20	20	20	20	AVEFA activity (visual, scale 0-100%) [16]: 60%; TRZAS activity (visual, scale 0-100%) [17]: 20%; LOLPE IU soil activity (visual, scale 0-100%) [18]: 55%; LOLPE IU/EC73 soil activity (visual, scale 0-100%) [18]: 0%
COc1nc(C)nc(NC(=O)NS(=O)(=O)c2cc(I)ccc2C(=O)O)n1 [(C) iodosulfuron]																	40	90	60	100	
